Source: patent publication US4801712A, “2-Alkyl(or phenyl)thio-6-n-alkylergolines are dopamine D-1 antagonists without D-2 agonist activity” (Eli Lilly and Company, priority 1987, dated 1989)
Counter-ions that a name gives are not always drawn.

How the values were obtained:
dopamine D-1 receptors = molecular target: T1, dopamine D-1 receptors (Rattus norvegicus, UniProt P18901); test: Retinal Adenylate Cyclase Assay (dopamine D-1 antagonist assay); assay type: biochemical, rat (adult male, Sprague-Dawley); conditions: 10 μM dopamine, rat retina homogenate; for inhibition at 0.1 µM: 0.1 μM drug; for inhibition at 1 µM: 1.0 μM drug; for inhibition at 3 µM: 3.0 μM drug; for inhibition at 10 µM: 10.0 μM drug; for inhibition at 100 µM: 100.0 μM drug
T1 construct: Retinal tissue was removed from the eyeball and homogenized; from tissue; host or cells: rat retina homogenate (adult male Sprague-Dawley)
T1 sequence (P18901 whole entry): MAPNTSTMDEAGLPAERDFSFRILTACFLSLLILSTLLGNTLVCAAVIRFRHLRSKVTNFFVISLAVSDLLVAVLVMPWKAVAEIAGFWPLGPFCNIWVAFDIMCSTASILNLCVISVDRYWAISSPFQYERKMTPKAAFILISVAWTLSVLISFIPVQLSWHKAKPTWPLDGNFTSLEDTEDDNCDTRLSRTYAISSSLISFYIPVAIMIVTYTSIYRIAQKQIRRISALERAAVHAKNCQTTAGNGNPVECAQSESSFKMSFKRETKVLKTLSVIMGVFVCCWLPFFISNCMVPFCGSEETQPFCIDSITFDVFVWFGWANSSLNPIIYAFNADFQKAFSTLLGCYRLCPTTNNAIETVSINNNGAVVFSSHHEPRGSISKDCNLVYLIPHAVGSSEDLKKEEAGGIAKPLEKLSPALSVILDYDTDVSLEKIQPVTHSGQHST
Protocol: The compounds of this invention are dopamine D-1 antagonists without D-2 agonist activity; i.e., they counter the effects of dopamine at D-1 receptors in the brain. The dopamine D-1 antagonist assay was carried out as follows.
Retinal Adenylate Cyclase Assay
Adult male, Sprague-Dawley rats purchased from Charles River Breeding Laboratories (North Wilmington, Mass.) were used in these studies. The rats were decapitated and the eyeballs were removed. The eyeballs were bisected at the juncture of the sclera and iris using capsulotomy scissors. The retina was dissociated from the choroid by irrigation with saline. Retinal tissue was removed from the eyeball and homogenized with Tris-2 mM EGTA (pH 7.4; 1:150 wt.:vol.) using a teflon-glass Dounce homogenizer at a speed of 50 rpm.
The adenylate cyclase assay was performed at an incubation temperature of 30° C. and over a 20-minute reaction period. The reaction mixture contained the following constant ingredients: 2 mM MgSO4, 0.5 mM EGTA, 1 mM IBMX, 0.01 mM GTP, 80 mM Tris-HCl, pH 7.4, 0.5 mM ATP with 3-5×10^6 cpm ^32 P-ATP and 20-25 μg retinal homogenate protein. The reaction mixture also contained various concentrations of the compound tested alone or in the presence of 10 μM dopamine. The reaction was started by the addition of ATP/^32 P-ATP and was stopped by the addition of a solution containing 1% SDS, 20 mM ATP, 0.7 mM cyclic AMP, 80 mM Tris-HCl pH 7.4 and 10^4 cpm ^3 H-cyclic AMP in a total volume of 200 μl. This mixture was heated for 2 minutes at 90° C. to further insure reaction termination. The ^32 P cyclic AMP formed during the reaction was isolated from each sample using the chromatographic method of Solomon (1979). The ^3 H-cyclic AMP was also simultaneously isolated with this procedure. The net ^32 P-cyclic AMP formed was calculated by correcting the final ^32 P cpm for column recovery efficiency delermined by the ^3 H recovery and for background radioactivity determined by the radioactivity in incubates without homogenate. Homogenate protein determinations were made using the BioRad protein assay with bovine serum albumin used at the reference protein. Dopaminergic agonist activity was evaluated based upon percent stimulation over activity without drug. Dopaminergic antagonist activity was estimated based upon the percent inhibition of the response to 10 μM dopamine.
In the Table, column 1 gives the name of the compound, column 2, the concentration of drug in the medium, and column 3, the percent inhibition of 10 μM dopamine.

[1] = test system: prolactin secretion (D-2); test: Inhibition of prolactin secretion in nonreserpinized rats (test for D-2 dopamine agonist activity); assay type: in vivo, rat (adult male, Sprague-Dawley); conditions: 1 hour after treatment, rat serum
Protocol: The drugs of this invention, represented by formulas II and III, are shown to lack D-2 dopamine agonist activity at D-1 antagonist dose levels in a test to determine their ability (or inability) to inhibit the secretion of prolactin in nonrespernized rats. This test was carried out as follows.
Adult male rats of the Sprague-Dawley strain weighing about 200 g. were housed in an air-conditioned room with controlled lighting (14 hours light-10 hours dark) and fed lab chow and water ad libitum. The compound was dissolved in 10 percent ethanol, and injected intraperitoneally at a dose of 1 or 2 mg/kg. The compound was administered to a group of 10 rats, and a control group of 10 intact males received an equivalent amount of 10 percent ethanol. One hour after treatment, all rats were killed by decapitation, and 150 μl aliquots of serum were assayed for prolactin.
The difference between the mean prolactin level of the treated rats and mean prolactin level of the control rats, divided by the mean prolactin level of the control rats, gives the percent change in prolactin secretion attributable to the given dose.

prolactin = conditions: found by Clemens, Semonsky, Meites and co-workers; cited from earlier work

CSc1[nH]c2cccc3c2c1CC(N(C)C)C3 (racemic) [(±)-2-methylthio-4-dimethyamino-1,3,4,5-tetrahydrobenz[c,d]indole maleate]
inhibition at 0.1 µM (dopamine D-1 receptors): -5.3%
inhibition at 0.3 µM (dopamine D-1 receptors; 0.3 μM drug): -2.2 ± 3.8%
inhibition at 1 µM (dopamine D-1 receptors): 0.9 ± 1.5%
inhibition at 3 µM (dopamine D-1 receptors): 19.1 ± 6.4%
inhibition at 10 µM (dopamine D-1 receptors): 34.7 ± 13%
inhibition at 100 µM (dopamine D-1 receptors): 84 ± 3.3%
inhibition at 1 mg/kg ([1]; ip, 1 mg/kg i.p., not marked as statistically significant, read-out: Percent changes in prolactin (inhibition)): 9%

CC(C)C[C@H]1C(=O)N2CCC[C@H]2[C@]2(O)O[C@](NC(=O)[C@@H]3C=C4c5cccc6[nH]c(Br)c(c56)C[C@H]4N(C)C3)(C(C)C)C(=O)N12 [2-bromo α-ergokryptine]
activity as prolactin inhibitors (prolactin): activity as prolactin inhibitors

CSc1[nH]c2cccc3c2c1C[C@@H]1[C@@H]3CC(CC#N)CN1C (stereo partly drawn) [D-2-methylthio-6-methyl-8-cyanomethylergoline]
inhibition at 2 mg/kg ([1]; ip, 2 mg/kg i.p., * statistically significant at p < 0.05, read-out: Percent changes in prolactin (inhibition)): 68%

CSC[C@@H]1C[C@@H]2c3cccc4[nH]c(SC)c(c34)C[C@H]2N(C)C1 [D-2-methylthio-6-methyl-8β-methylthiomethylergoline]
inhibition at 0.1 µM (dopamine D-1 receptors): -5%
inhibition at 1 µM (dopamine D-1 receptors): 26.4 ± 6%
inhibition at 3 µM (dopamine D-1 receptors): 49 ± 0.8%
inhibition at 10 µM (dopamine D-1 receptors): 72.5 ± 4.8%
inhibition at 30 µM (dopamine D-1 receptors; 30.0 μM drug): 73.8 ± 4.2%
inhibition at 100 µM (dopamine D-1 receptors): 76.6 ± 7.7%
Percent changes in prolactin (stimulation) ([1]; 2 mg/kg i.p., * statistically significant at p < 0.05): 54%

CN1CC(CC#N)C[C@@H]2c3cccc4[nH]cc(c34)C[C@H]21 (stereo partly drawn) [D-6-methyl-8-cyanomethylergoline]
activity as prolactin inhibitors (prolactin): activity as prolactin inhibitors

CC(C)[C@H]1C(=O)N2CCC[C@H]2[C@]2(O)O[C@](NC(=O)[C@@H]3C=C4c5cccc6[nH]cc(c56)C[C@H]4N(C)C3)(C(C)C)C(=O)N12 [Ergocornine]
activity as prolactin inhibitors (prolactin): activity as prolactin inhibitors

CC(C)[C@H]1C(=O)N2CCC[C@H]2[C@]2(O)O[C@](NC(=O)[C@@H]3C[C@@H]4c5cccc6[nH]cc(c56)C[C@H]4N(C)C3)(C(C)C)C(=O)N12 [dihydroergocornine]
activity as prolactin inhibitors (prolactin): activity as prolactin inhibitors
